From patent US12263248B2, “Compounds and compositions for intracellular delivery of therapeutic agents” (ModernaTX, Inc., priority 2018, dated 2025)

Columns and labels:
luciferase (Luc) mRNA [1] = assay: Luc expression, whole body bioluminescence after intravenous administration to mice; type: in vivo; conditions: for i.v. Lipid/MC3 0.5 mpk, Luc, 6 h: Table 3B; for Total Flux 3 hours / Total Flux 6 hours / Total Flux 24 hours: Luc mRNA; for Novel lipid/MC3 expression ratio, 6 hr. time point, i.v.: relative to MC3 formulation
Summary of the method: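 Luc mRNA nanoparticle formulations given intravenously to mice (n=6) at 0.5 mg/kg; whole-body bioluminescence imaged at 3, 6 and 24 h. CD-1 mice received IP D-luciferin (200 μL of 15 mg/mL) 15 min before imaging; total flux quantified by region of interest.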

[2] = Particle size and polydispersity index of nanoparticle compositions (Zetasizer Nano ZS); type: physicochemical
Summary of the method: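 Particle size and PDI were measured on a Zetasizer Nano ZS with the nanoparticle compositions dispersed in 1×PBS.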

luciferase (Luc) mRNA [3] = assay: Luc expression (total flux) after intramuscular administration; type: in vivo, mice; conditions: for i.m. Lipid/MC3 0.01 mpk, Luc, 6 h: Table 3B; for Total flux (p/s) 0.01 mpk Dose: Table 5B, 6 hours after intramuscular administration; for Novel lipid/MC3 expression ratio, 6 hr. time point, i.m. Luc / AUC (p/s * h) / Lipid/MC3 AUC: intramuscular; for Novel lipid/MC3 expression ratio, 6 hr. time point, i.m. Luc: relative to MC3 formulation; for AUC (p/s * h) / Lipid/MC3 AUC: Table 3H, Luc
Summary of the method: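 Mice given a single intramuscular dose of lipid nanoparticle formulations carrying modified Luc mRNA, alone or with H10 mRNA, at 0.001 or 0.01 mpk total. Luciferase expression recorded as total flux.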

luciferase (Luc) mRNA [4] = assay: Luc expression in liver, lung, spleen and femur 6 hours after intravenous administration; type: in vivo; conditions: mice, 0.5 mpk; for Total Flux Liver / Total Flux Lung / Total Flux Spleen: intravenous
Summary of the method: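 LNP-formulated mRNA given IV to mice (n=3) at 0.5 mpk; at 6 h, bioluminescence imaged ex vivo 15 min after IP D-luciferin (15 mg/mL, 200 μL), organs imaged within 25 min. Values are total flux by region of interest.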

[5] = Table 1A, lipid:DSPC:cholesterol:PEG-DMG 50:10:38.5:1.5 mol %
[6] = Table 1B, formulated with hEPO mRNA
[7] = Table 1E, compositions for subcutaneous administration
[8] = Table 1C, compositions for subcutaneous administration
[9] = Table 1D, for subcutaneous administration, # formulated with hEPO mRNA

SMILES	i.v. Lipid/MC3 0.5 mpk, Luc, 6 h (luciferase (Luc) mRNA [1]; i.v.)	Total Flux 3 hours (luciferase (Luc) mRNA [1]; mice, i.v., 0.5 mg/kg)	Total Flux 6 hours (luciferase (Luc) mRNA [1]; mice, i.v., 0.5 mg/kg)	Total Flux 24 hours (luciferase (Luc) mRNA [1]; mice, i.v., 0.5 mg/kg)	PDI ([2]; Table 1A)	Size (nm) [2, 5] [nm]	PDI [2, 6]	Size (nm) [2, 6] [nm]	PDI [2, 7]	Size (nm) [2, 7] [nm]	i.m. Lipid/MC3 0.01 mpk, Luc, 6 h (luciferase (Luc) mRNA [3]; 0.01 mpk)	Total flux (p/s) 0.01 mpk Dose (luciferase (Luc) mRNA [3]; 0.01 mpk) [p/s]	Novel lipid/MC3 expression ratio, 6 hr. time point, i.m. Luc (luciferase (Luc) mRNA [3])	Total Flux Liver (luciferase (Luc) mRNA [4])	Total Flux Lung (luciferase (Luc) mRNA [4])	Total Flux Spleen (luciferase (Luc) mRNA [4])	PDI [2, 8]	Size (nm) [2, 8] [nm]	Novel lipid/MC3 expression ratio, 6 hr. time point, i.v. (luciferase (Luc) mRNA [1]; luciferase, intravenous)	other results
CCCCCCCCCOC(=O)CCCCCCCN(CCCCCCCC(=O)OC(CCCCCCCC)CCCCCCCC)CCCNC(C)=O [Compound 108, Heptadecan-9-yl 8-((3-acetamidopropyl)(8-(nonyloxy)-8-oxooctyl)amino)octanoate]	0.4	5.04E+09	5.53E+09	1.50E+08	0.14	119	0.22	89.6	0.15	96.1	14.2	4.60E+08	14.2	4.63E+08	9.81E+06	7.82E+08				Luc expression upon intramuscular administration (luciferase (Luc) mRNA [3]; 0.01 mpk, in words): highest expression; flux measured at 6 h relative to the MC3 formulation (luciferase (Luc) mRNA [3]; intramuscular administration (i.m.), in words): fourteen; Flux in the spleen (luciferase (Luc) mRNA [4]; i.v., in words): highest
CCCCCCCCCOC(=O)CCCCCCCN(CCCCCCCC(=O)OC(CCCCCCCC)CCCCCCCC)CCCNS(C)(=O)=O [Compound 109, Heptadecan-9-yl 8-((3-(methylsulfonamido)propyl)(8-(nonyloxy)-8-oxooctyl)amino)octanoate]	0.3	3.82E+09	4.88E+09	8.06E+07	0.13	81.1	0.099	75	0.10	67.0	3.6	1.18E+08	3.65	8.17E+08	6.03E+06	4.81E+07				
CCCCCCCCCOC(=O)CCCCCCCN(CCCCCCCC(=O)OC(CCCCCCCC)CCCCCCCC)CCCNC(=O)N(C)C [Compound 110, Heptadecan-9-yl 8-((3-(3,3-dimethylureido)propyl)(8-(nonyloxy)-8-oxooctyl)amino)octanoate]		1.89E+09	2.57E+09	1.11E+08	0.21	91.5	0.24	73.3				1.21E+08	3.74	2.30E+08	5.76E+06	1.41E+08	0.21	91.5		
CCCCCCCCCOC(=O)CCCCCCCN(CCCCCCCC(=O)OC(CCCCCCCC)CCCCCCCC)CCCNC(=S)N(C)C [Compound 111, Heptadecan-9-yl 8-((3-(3,3-dimethylthioureido)propyl)(8-(nonyloxy)-8-oxooctyl)amino)octanoate]	2.6	1.89E+10	3.57E+10	8.86E+08	0.22	116.7	0.13	93.3	0.16	88.9	4.9	1.58E+08	4.88	4.83E+09	2.57E+07	2.44E+08			2.59	PDI [2, 9]: 0.12; Size (nm) [2, 9]: 94.5 nm
CCCCCCCCCOC(=O)CCCCCCCN(CCCCCCCC(=O)OC(CCCCCCCC)CCCCCCCC)CCCNC(=O)NC [Compound 112, Heptadecan-9-yl 8-((3-(3-methylureido)propyl)(8-(nonyloxy)-8-oxooctyl)amino)octanoate]		9.69E+08	1.04E+09	2.75E+07	0.22	83.7	0.21	60.6				9.47E+07	2.93	1.48E+08	1.83E+06	2.75E+07	0.22	83.7		
CCCCCCCCCOC(=O)CCCCCCCN(CCCCCCCC(=O)OC(CCCCCCCC)CCCCCCCC)CCCNC(=S)NC [Compound 113, Heptadecan-9-yl 8-((3-(3-methylthioureido)propyl)(8-(nonyloxy)-8-oxooctyl)amino)octanoate]		5.16E+09	8.09E+09	1.30E+08	0.13	86.8							1.58	1.11E+09	5.55E+06	5.22E+07	0.14	83.9		AUC (p/s * h) (luciferase (Luc) mRNA [3]): 1.01E+09 p/s * h; Lipid/MC3 AUC (luciferase (Luc) mRNA [3]): 1.71
CCCCCCCCC(C)OC(=O)CCCCCN(CCO)CCCCCCCC(=O)OC(CCCCCCCC)CCCCCCCC (stereo not drawn) [Compound 122, Heptadecan-9-yl 8-((6-(decan-2-yloxy)-6-oxohexyl)(2-hydroxyethyl)amino)octanoate]		3.64E+10	8.64E+10	1.95E+09	0.09	69.3	0.12	70.2				9.19E+07	2.84	2.63E+09	2.77E+07	1.56E+07	0.16	80.2	3.23	Novel lipid/MC3 ratio, 6 hr. timepoint, i.v. (luciferase (Luc) mRNA [1]; luciferase, intravenous, relative to MC3, Table 3G): 3.23
CCCCCCCCC(CCCCCCCC)OC(=O)CCCCCCCN(CCO)CCCCCC(=O)OC(CCCCCCCC)C1CC1 (stereo not drawn) [Compound 128, Heptadecan-9-yl 8-((6-((1-cyclopropylnonyl)oxy)-6-oxohexyl)(2-hydroxyethyl)amino)octanoate]		1.04E+11	8.99E+10	1.00E+09	0.22	104.1			0.13	73.9				5.98E+09	2.16E+07	7.09E+07			4.05	Fold increase in total body Luc Flux relative to MC3 at 6 h (luciferase (Luc) mRNA [1]; Table 3A, i.v. administration): 4.05; total flux at 3 hours (luciferase (Luc) mRNA [1]; mice, i.v., 0.5 mg/kg, comparison in words): highest; AUC (p/s * h) (luciferase (Luc) mRNA [3]): 8.59E+08 p/s * h; Lipid/MC3 AUC (luciferase (Luc) mRNA [3]): 1.46
